Test results taken from ChEMBL document CHEMBL4130426, “Namalides B and C and Spumigins K-N from the Cultured Freshwater Cyanobacterium Sphaerospermopsis torques-reginae” (J Nat Prod, 2017).
pIC50: −log10 of the molar value. Calls of active or inactive are those of the source. No cut-off for these calls is given here.

Experiments:
Prothrombin [1] = molecular target: T1, Prothrombin (Homo sapiens, UniProt P00734); experiment: Inhibition of thrombin (unknown origin) up to 150 to 350 uM using N-benzoyl-Phe-Val-Arg-p-nitroanilide hydrochloride as substrate pretreated for 5 mins followed by substrate addition measured after 30 mins by colorimetric method
Prothrombin [2] = molecular target: T1, Prothrombin; experiment: Inhibition of thrombin (unknown origin) using N-benzoyl-Phe-Val-Arg-p-nitroanilide hydrochloride as substrate pretreated for 5 mins followed by substrate addition measured after 30 mins by colorimetric method
Carboxypeptidase A1 = molecular target: T2, Carboxypeptidase A1 (Bos taurus, UniProt P00730); experiment: Inhibition of bovine pancreas carboxypeptidase A using N-4-(methoxyphenylazoformyl)-Phe-OH as substrate measured after 5 mins by colorimetric method
T2 sequence (P00730 whole entry): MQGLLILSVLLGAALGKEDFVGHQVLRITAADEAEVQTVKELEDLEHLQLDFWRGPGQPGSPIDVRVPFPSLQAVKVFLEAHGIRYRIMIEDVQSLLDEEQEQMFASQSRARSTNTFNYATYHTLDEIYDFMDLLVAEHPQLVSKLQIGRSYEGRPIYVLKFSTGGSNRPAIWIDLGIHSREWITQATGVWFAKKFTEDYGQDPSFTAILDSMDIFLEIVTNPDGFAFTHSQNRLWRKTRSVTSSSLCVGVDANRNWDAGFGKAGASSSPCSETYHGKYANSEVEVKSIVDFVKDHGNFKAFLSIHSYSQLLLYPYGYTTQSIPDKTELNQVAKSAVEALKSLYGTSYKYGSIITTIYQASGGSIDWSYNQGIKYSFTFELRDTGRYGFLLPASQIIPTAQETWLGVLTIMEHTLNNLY

[3] = molecular target: T3, Chymotrypsin-C (Homo sapiens) (UniProt Q99895); experiment: Inhibition of human pancreas chymotrypsin C up to 0.78 mM using N-succinyl-Ala-Ala-Pro-Phe p-nitroanilide as substrate pretreated for 5 mins followed by substrate addition measured after 30 mins by colorimetric method
T3 sequence (whole entry): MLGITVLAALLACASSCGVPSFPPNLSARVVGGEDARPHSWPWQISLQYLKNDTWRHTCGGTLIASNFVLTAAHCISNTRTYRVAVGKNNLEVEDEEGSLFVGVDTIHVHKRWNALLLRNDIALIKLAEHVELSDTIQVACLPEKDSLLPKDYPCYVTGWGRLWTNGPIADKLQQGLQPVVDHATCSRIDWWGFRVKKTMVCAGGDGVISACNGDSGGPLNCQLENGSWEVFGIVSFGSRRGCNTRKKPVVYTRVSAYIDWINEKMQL

Row | Structure (SMILES) | inhibition (Prothrombin [1]) | pIC50 (Prothrombin [2]) | pIC50 (Carboxypeptidase A1) | inhibition [3]
1 | CC1C[C@@H](C(=O)N[C@@H](CO)CCCNC(=N)N)N(C(=O)[C@@H](Cc2ccc(O)cc2)NC(=O)C(O)CCc2ccc(O)cc2)C1 (stereo partly drawn) | inactive |  |  | 
2 | N=C(N)NCCC[C@@H](CO)NC(=O)[C@@H]1CCCN1C(=O)[C@@H](Cc1ccc(O)cc1)NC(=O)C(O)CCc1ccc(O)cc1 (stereo partly drawn) |  | 3.60 |  | 
3 | CC1C[C@@H](C(=O)N[C@H](CO)CCCNC(=N)N)N(C(=O)[C@@H](Cc2ccc(O)cc2)NC(=O)C(O)CCc2ccc(O)cc2)C1 (stereo partly drawn) | inactive |  |  | 

Next, values leading:

Row | inhibition (Prothrombin [1]) | pIC50 (Prothrombin [2]) | pIC50 (Carboxypeptidase A1) | inhibition [3] | Structure (SMILES)
4 |  |  | 6.12 | inactive | CC[C@@H](C)[C@H](NC(=O)N[C@@H]1CCCCNC(=O)[C@H](CCc2ccc(O)cc2)NC(=O)[C@H]([C@H](C)CC)NC1=O)C(=O)O
5 |  |  | 5.70 | inactive | CC[C@@H](C)[C@H](NC(=O)N[C@@H]1CCCCNC(=O)[C@H](CCc2ccc(O)cc2)NC(=O)[C@H](C(C)C)NC1=O)C(=O)O
6 |  | 3.60 |  |  | N=C(N)NCCC[C@H](CO)NC(=O)[C@@H]1CCCN1C(=O)[C@@H](Cc1ccc(O)cc1)NC(=O)C(O)CCc1ccc(O)cc1 (stereo partly drawn)
